The values that follow come from US9676704B2, “Pesticidal compositions and processes related thereto” (Dow AgroSciences LLC, priority 2014, dated 2017).

The structures appear in SMILES notation.

Series [1] has as its system Beet Armyworm (BAW). The series is described as follows: Bioassays on BAW, 128-well diet tray assay. In kind it is in vivo. The conditions noted are these: Spodoptera exigua; for mortality at 50 µg/cm2: 168 h, 50 μg/cm^2 on artificial diet, second instar larvae, five to seven days, 25° C., read-out: BAW % Control (or Mortality) rating. On the procedure:
Bioassays on BAW were conducted using a 128-well diet tray assay. one to five second instar BAW larvae were placed in each well (3 mL) of the diet tray that had been previously filled with 1 mL of artificial diet to which 50 μg/cm^2 of the test compound (dissolved in 50 μL of 90:10 acetone-water mixture) had been applied (to each of eight wells) and then allowed to dry. Trays were covered with a clear self-adhesive cover, and held at 25° C., 14:10 light-dark for five to seven days. Percent mortality was recorded for the larvae in each well; activity in the eight wells was then averaged. The results are indicated in the tables entitled “Table ABC: Assay Results (F)”, “Table ABCD: Assay Results (C)”, and “Table ABCDE: Assay Results (P)” (See Table Section).
(§1) Bioassays on BAW and CL were conducted according to the procedures outlined in Example A: Bioassays on Beet Armyworm (“BAW”) and Cabbage Looper (“CL”) using the following concentrations: 5, 0.5, and 0.05 μg/cm^2.

For series [2], the system named is Cabbage Looper (CL). The series is described as follows: Bioassays on CL, 128-well diet tray assay. In kind it is in vivo. The settings on record: Trichoplusia ni; for mortality at 50 µg/cm2: 168 h, 50 μg/cm^2 on artificial diet, second instar larvae, five to seven days, 25° C., read-out: CL % Control (or Mortality) rating. On the procedure: Bioassays on CL were conducted using a 128-well diet tray assay. One to five second instar CL larvae were placed in each well (3 mL) of the diet tray that had been previously filled with 1 mL of artificial diet to which 50 μg/cm^2 of the test compound (dissolved in 50 μL of 90:10 acetone-water mixture) had been applied (to each of eight wells) and then allowed to dry. Trays were covered with a clear self-adhesive cover, and held at 25° C., 14:10 light-dark for five to seven days. Percent mortality was recorded for the larvae in each well; activity in the eight wells was then averaged. The results are indicated in the table entitled “Table ABC: Assay Results (F)”, “Table ABCD: Assay Results (C)”, and “Table ABCDE: Assay Results (P)” (See Table Section).
as §1

The subject of series [3] is Yellow Fever Mosquito (YFM). Type of series: in vivo, Aedes aegypti. The settings on record: 15 μL of diluted 4000 ppm master solution per well, about 1 day-old larvae, 3 days. The method, then: Master plates containing 400 μg of a molecule dissolved in 100 μL of dimethyl sulfoxide (DMSO) (equivalent to a 4000 ppm solution) are used. A master plate of assembled molecules contains 15 μL per well. To this plate, 135 μL of a 90:10 water:acetone mixture is added to each well. A robot (Biomek® NXP Laboratory Automation Workstation) is programmed to dispense 15 μL aspirations from the master plate into an empty 96-well shallow plate (“daughter” plate). There are 6 reps (“daughter” plates) created per master. The created daughter plates are then immediately infested with YFM larvae. The day before plates are to be treated, mosquito eggs are placed in Millipore water containing liver powder to begin hatching (4 g. into 400 mL). After the daughter plates are created using the robot, they are infested with 220 μL of the liver powder/larval mosquito mixture (about 1 day-old larvae). After plates are infested with mosquito larvae, a non-evaporative lid is used to cover the plate to reduce drying. Plates are held at room temperature for 3 days prior to grading. After 3 days, each well is observed and scored based on mortality. The results are indicated in the table entitled “Table ABC: Assay Results (F)” and “Table ABCD: Assay Results (C)” (See Table Section). Pesticidally Acceptable Acid Addition Salts, Salt Derivatives, Solvates, Ester Derivatives, Polymorphs, Isotopes and Radionuclides

The mortality is the share of the test organisms that died. Turning to `CCCCCC(=O)N[C@@H](C)NC(=O)c1ccc(/C=C/C(c2cc(Cl)c(Cl)c(Cl)c2)C(F)(F)F)cc1C(F)(F)F` (stereo partly drawn) [Compound F3, N—((R)-1-hexanamidoethyl)-4-((E)-4,4,4-trifluoro-3-(3,4,5-trichlorophenyl)but-1-en-1-yl)-2-(trifluoromethyl)benzamide], the mortality at 50 µg/cm2 in series [1] and in series [2] was 50 to 100% each time. For the same compound, the “YFM % Control (or Mortality) rating” value in series [3] is on record as “A (80-100)”.
On to `C[C@H](NC(=O)CC#N)NC(=O)c1ccc(/C=C/C(c2cc(Cl)c(Cl)c(Cl)c2)C(F)(F)F)cc1C(F)(F)F` (stereo partly drawn) [Compound F11, N—((R)-1-(2-Cyanoacetamido)ethyl)-4-((E)-4,4,4-trifluoro-3-(3,4,5-trichlorophenyl)but-1-en-1-yl)-2-(trifluoromethyl)benzamide], for which the mortality at 50 µg/cm2 in series [1] and in series [2] was 50 to 100% each time. Also, the “YFM % Control (or Mortality) rating” value in series [3] was “A (80-100)”.
Regarding `CN(CCNC(=O)c1ccc(/C=C/C(c2cc(Cl)c(Cl)c(Cl)c2)C(F)(F)F)cc1C(F)(F)F)C(=O)CC(F)(F)F` (stereo not drawn) [Compound F20, (E)-4-(4,4,4-trifluoro-3-(3,4,5-trichlorophenyl)but-1-en-1-yl)-N-(2-(3,3,3-trifluoro-N-methylpropanamido)ethyl)-2-(trifluoromethyl)benzamide], the mortality at 50 µg/cm2 in series [1] and in series [2] was 50 to 100% in each case. For the same compound, the “YFM % Control (or Mortality) rating” value in series [3] is “A (80-100)”.
As to `C[C@H](NC(=O)CC(C)(C)C)NC(=O)c1ccc(/C=C/C(c2cc(Cl)c(Cl)c(Cl)c2)C(F)(F)F)cc1C(F)(F)F` (stereo partly drawn) [Compound F15, N—((R)-1-(3,3-Dimethylbutanamido)ethyl)-4-((E)-4,4,4-trifluoro-3-(3,4,5-trichlorophenyl)but-1-en-1-yl)-2-(trifluoromethyl)benzamide], the mortality at 50 µg/cm2 in series [1] and in series [2] was 50 to 100% in each case. In addition, in series [3], the “YFM % Control (or Mortality) rating” value is reported as “A (80-100)”.
Regarding `C[C@H](NC(=O)CC(F)(F)F)NC(=O)c1ccc(/C=C/C(c2cc(Cl)c(Cl)c(Cl)c2)C(F)(F)F)cc1Br` (stereo partly drawn) [Compound P24], the mortality at 50 µg/cm2 in series [1] and in series [2] was 50 to 100% throughout. The mortality at 0.05 µg/cm2 in series [1] (0.05 μg/cm^2, read-out: BAW Percent control (or mortality)) worked out at 0%; in series [2] (0.05 μg/cm^2, read-out: CL Percent control (or mortality)) it was 6%. Moreover, the mortality at 0.5 µg/cm2 in series [1] (0.5 μg/cm^2, read-out: BAW Percent control (or mortality)) amounted to 7%; in series [2] (0.5 μg/cm^2, read-out: CL Percent control (or mortality)), 19%. In addition, the mortality at 5 µg/cm2 in series [1] (5 μg/cm^2, read-out: BAW Percent control (or mortality)) was 87%; in series [2] (5 μg/cm^2, read-out: CL Percent control (or mortality)) it was 100%. In addition, the “YFM % Control (or Mortality) rating” value in series [3] is “D (No activity noticed in this bioassay)”.
On to `C[C@H](NC(=O)CCC#N)NC(=O)c1ccc(/C=C/C(c2cc(Cl)c(Cl)c(Cl)c2)C(F)(F)F)cc1C(F)(F)F` (stereo partly drawn) [Compound F9, N—((R)-1-(3-cyanopropanamido)ethyl)-4-((E)-4,4,4-trifluoro-3-(3,4,5-trichlorophenyl)but-1-en-1-yl)-2-(trifluoromethyl)benzamide], for which the mortality at 50 µg/cm2 in series [1] and in series [2] was 50 to 100% in each case. Besides, in series [3], the “YFM % Control (or Mortality) rating” value is given as “A (80-100)”.
Regarding `CCCCC(=O)N[C@@H](C)NC(=O)c1ccc(/C=C/C(c2cc(Cl)c(Cl)c(Cl)c2)C(F)(F)F)cc1C(F)(F)F` (stereo partly drawn) [Compound F5, N—((R)-1-Pentanamidoethyl)-4-((E)-4,4,4-trifluoro-3-(3,4,5-trichlorophenyl)but-1-en-1-yl)-2-(trifluoromethyl)benzamide], the mortality at 50 µg/cm2 in series [1] and in series [2] was 50 to 100% in each case. Further, in series [3], the “YFM % Control (or Mortality) rating” value was “A (80-100)”.
With `Cc1cc(/C=C/C(c2cc(Br)c(Cl)c(Br)c2)C(F)(F)F)ccc1C(=O)N[C@H](C)NC(=O)CC(F)(F)F` (stereo partly drawn) [Compound P6, 4-((E)-3-(3,5-Dibromo-4-chlorophenyl)-4,4,4-trifluorobut-1-en-1-yl)-2-methyl-N—((R)-1-(3,3,3-trifluoropropanamido)ethyl)benzamide], the mortality at 50 µg/cm2 in series [1] and in series [2] was 50 to 100% each time. The “YFM % Control (or Mortality) rating” value in series [3] is “A (80-100)”.
As for `C[C@@H](NC(=O)c1ccc(/C=C/C(c2cc(Cl)c(Cl)c(Cl)c2)C(F)(F)F)cc1C(F)(F)F)NC(=O)C1(C#N)CC1` (stereo partly drawn) [Compound F14, N—((S)-1-(1-cyanocyclopropanecarboxamido)ethyl)-4-((E)-4,4,4-trifluoro-3-(3,4,5-trichlorophenyl)but-1-en-1-yl)-2-(trifluoromethyl)benzamide], the mortality at 50 µg/cm2 in series [1] and in series [2] was 50 to 100% throughout. In addition, the “YFM % Control (or Mortality) rating” value in series [3] is recorded as “A (80-100)”.
In the case of `C[C@H](NC(=O)CCC(F)(F)F)NC(=O)c1ccc(/C=C/C(c2cc(Br)c(Cl)c(Br)c2)C(F)(F)F)cc1C(F)(F)F` (stereo partly drawn) [Compound P10, 4-((E)-3-(3,5-Dibromo-4-chlorophenyl)-4,4,4-trifluorobut-1-en-1-yl)-N—((R)-1-(4,4,4-trifluorobutanamido)ethyl)-2-(trifluoromethyl)benzamide], the mortality at 50 µg/cm2 in series [1] and in series [2] was 50 to 100% each time. Also, the “YFM % Control (or Mortality) rating” value in series [3] is “A (80-100)”.
As for `CN(CCNC(=O)c1ccc(/C=C/C(c2cc(Cl)c(Cl)c(Cl)c2)C(F)(F)F)cc1C(F)(F)F)C(=O)C(F)(F)F` (stereo not drawn) [Compound F21, (E)-4-(4,4,4-trifluoro-3-(3,4,5-trichlorophenyl)but-1-en-1-yl)-N-(2-(2,2,2-trifluoro-N-methylacetamido)ethyl)-2-(trifluoromethyl)benzamide], the mortality at 50 µg/cm2 in series [1] and in series [2] was 50 to 100% throughout. Further, in series [3], the “YFM % Control (or Mortality) rating” value is “B (More than 0-Less than 80)”.
In the case of `C[C@@H](NC(=O)c1ccc(/C=C/C(c2cc(Cl)c(Cl)c(Cl)c2)C(F)(F)F)cc1C(F)(F)F)NC(=O)C(C)(C)C(F)(F)F` (stereo partly drawn) [Compound P33, N—((S)-1-(3,3,3-Trifluoro-2,2-dimethylpropanamido)ethyl)-4-((E)-4,4,4-trifluoro-3-(3,4,5-trichlorophenyl)but-1-en-1-yl)-2-(trifluoromethyl)benzamide], the mortality at 50 µg/cm2 in series [1] and in series [2] was 50 to 100% each time. Besides, the “YFM % Control (or Mortality) rating” value in series [3] is “A (80-100)”.
Regarding `C[C@H](NC(=O)CCCC(C)(C)C)NC(=O)c1ccc(/C=C/C(c2cc(Cl)c(Cl)c(Cl)c2)C(F)(F)F)cc1C(F)(F)F` (stereo partly drawn) [Compound F18, N—((R)-1-(5,5-Dimethylhexanamido)ethyl)-4-((E)-4,4,4-trifluoro-3-(3,4,5-trichlorophenyl)but-1-en-1-yl)-2-(trifluoromethyl)benzamide], the mortality at 50 µg/cm2 in series [1] and in series [2] was 50 to 100% throughout. For the same compound, in series [3], the “YFM % Control (or Mortality) rating” value was “A (80-100)”.
With `C[C@H](NC(=O)CCCC(F)(F)F)NC(=O)c1ccc(/C=C/C(c2cc(Cl)c(Cl)c(Cl)c2)C(F)(F)F)cc1C(F)(F)F` (stereo partly drawn) [Compound F10, 4-((E)-4,4,4-Trifluoro-3-(3,4,5-trichlorophenyl)but-1-en-1-yl)-2-(trifluoromethyl)-N—((R)-1-(5,5,5-trifluoropentanamido)ethyl)benzamide], the mortality at 50 µg/cm2 in series [1] and in series [2] was 50 to 100% in each case. Moreover, the “YFM % Control (or Mortality) rating” value in series [3] is on record as “A (80-100)”.
